For series [1], the system named is Benign Ben-Men-1. The experiment in a line: Cell viability, MTT assay. The class given is cell-based. The settings on record: NF2−/−; 72 hrs; MTT. How it is done: (§1) Cells were plated at 3 × 10^3 cells per well in 96-well plates overnight and treated with various concentrations of Pak inhibitors for 72 hours. Cell viability was measured by MTT assay and the half maximal inhibitory concentration (IC50) was calculated.
Background: Tetrazolium assays rely on reduction of a dye to a coloured formazan, in cell work by metabolically active cells.

Series [2] has as its system Malignant MN525. The experiment in a line: Cell viability, MTT assay. Type of series: cell-based. The following applies: NF2+/+. How it is done:
as §1

The test system of series [3] is Malignant KT21-MG1. The experiment in a line: Cell viability, MTT assay. The class given is cell-based. The settings on record: NF2−/−; 72 hrs; MTT. How it is done:
as §1

The subject of series [4] is Benign MN328. The experiment in a line: Cell viability, MTT assay. The class given is cell-based. The following applies: NF2+/+. The method, then: as §1
Series [5] concerns Arachnoid cell AC07. The experiment in a line: Cell viability, MTT assay. The settings on record: NF2+/+, 72 hrs. Type of series: cell-based. The method, then:
as §1

For series [6], the system named is KT21-MG1-Luc5D intracranial xenografts. The experiment in a line: Orthotopic meningioma model, bioluminescence imaging. The following applies: for loss of body weight compared with control littermates: SCID mice bearing KT21.
Source text: Eight-week-old SCID mice were anesthetized with ketamine and their heads were stabilized in a small animal stereotaxic instrument. A midline sagittal incision was made on the cranial skin. A burr hole was drilled in the skull with coordinated 1.5 mm anterior and 1.5 mm lateral to the right from the bregma and a 5-μl Hamilton syringe loaded with cells was slowly inserted through the burr hole and ~0.5 mm downward to the skull base. The incision was closed using surgical absorbable gut suture.
Mice transplanted with meningioma cells were imaged using Xenogen IVIS Spectrum (Caliper, MA). Mice were injected intraperitoneally with Rediject D-Luciferin Ultra at 150 mg/kg under anesthetized with isofluorane. Luciferase activity was measured and all bioluminescence imaging was conducted when perk signal was reached. Once tumors were established (~3 weeks post-transplantation), mice were divided into groups for shRNA studies or drug treatments.
For drugs treatment, mice were dosed with Pak inhibitors daily for 14–21 days and tumor growth was monitored every week by BLI. Mean luminescence for each treatment groups (n = 5) was calculated as described previously.
Series [7] deals with T1, Pak1 (Homo sapiens, UniProt Q13153). The experiment in a line: Pak1 inhibition in vitro. Type of series: biochemical. The settings on record: read-out: IC50 values towards Pak1.
Series [8] has as its system KT21 cells. The experiment in a line: Apoptosis, Annexin V positive cells by flow cytometry. The class given is cell-based. The settings on record: 3 days, vs DMSO. The method, then:
For detection of apoptosis, subconfluent cells were plated in 60-mm plate and treated with inhibitors for 3 days. Cells were collected, washed and resuspended in 1x binding buffer with Annexin V-EGFP and propidium iodide (BioVision, CA) and incubated at room temperature for 5 min in dark. Apoptosis was measured using FACS with collecting 10,000 events per sample.
A general note: In flow cytometry, cells or beads pass a laser one at a time.

Series [9] deals with T2, NTRK1 (TRKA) (Homo sapiens, UniProt P04629).
T2 construct: purchased Invitrogen (Life Technologies) SelectScreen Z'-LYTE
The experiment in a line: Kinase selectivity, Z'-LYTE. The class given is biochemical. The essentials:
(§2)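 Selectivity was profiled by a fluorescence-based coupled-enzyme assay in which phosphorylated and non-phosphorylated peptides differ in sensitivity to proteolytic cleavage. Recombinant kinases were used, each with an assay mixture optimized for that kinase.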

Series [10] concerns the target T3, AKT2 (PKB beta) (Homo sapiens, UniProt P31751).
T3 construct: purchased Invitrogen (Life Technologies) SelectScreen Z'-LYTE
The experiment in a line: Kinase selectivity, Z'-LYTE. Type of series: biochemical. The essentials: as §2

For series [11], the target named is T4, CDK6/p25 (Homo sapiens, UniProt Q00535).
T4 construct: purchased Invitrogen (Life Technologies) SelectScreen Z'-LYTE
The experiment in a line: Kinase selectivity, Z'-LYTE. Type of series: biochemical. A digest of the protocol:
as §2

In series [12] the target is T5, CDK2/cyclin A (Homo sapiens, UniProt P24941).
T5 construct: purchased Invitrogen (Life Technologies) SelectScreen Z'-LYTE
The experiment in a line: Kinase selectivity, Z'-LYTE. Type of series: biochemical. A digest of the protocol: as §2

For series [13], the target named is T6, STK22D (TSSK1) (Homo sapiens, UniProt Q9BXA7).
T6 construct: purchased Invitrogen (Life Technologies) SelectScreen Z'-LYTE
T6 sequence (Q9BXA7 1-367): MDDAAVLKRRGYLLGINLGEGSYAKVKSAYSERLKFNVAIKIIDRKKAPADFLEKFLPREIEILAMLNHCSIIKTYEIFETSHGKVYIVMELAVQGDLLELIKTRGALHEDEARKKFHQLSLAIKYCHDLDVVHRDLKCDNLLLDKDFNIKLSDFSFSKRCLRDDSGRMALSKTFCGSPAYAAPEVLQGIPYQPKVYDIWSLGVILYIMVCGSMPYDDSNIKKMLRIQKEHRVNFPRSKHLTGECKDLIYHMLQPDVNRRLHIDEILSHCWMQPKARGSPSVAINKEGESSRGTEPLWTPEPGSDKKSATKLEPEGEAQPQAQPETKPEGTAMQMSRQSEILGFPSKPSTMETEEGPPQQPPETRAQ
The experiment in a line: Kinase selectivity, Z'-LYTE. Type of series: biochemical. A digest of the protocol: as §2

Series [14] deals with T7, RET (Homo sapiens, UniProt P07949).
T7 construct: purchased Invitrogen (Life Technologies) SelectScreen Z'-LYTE
The experiment in a line: Kinase selectivity, Z'-LYTE. Type of series: biochemical. A digest of the protocol: as §2

For series [15], the target named is T8, DYRK1B (Homo sapiens, UniProt Q9Y463).
T8 construct: purchased Invitrogen (Life Technologies) SelectScreen Z'-LYTE
The experiment in a line: Kinase selectivity, Z'-LYTE. The class given is biochemical. The essentials:
as §2

The target of series [16] is T9, AMPKA2/B1/G1 (Homo sapiens, UniProt P54646).
T9 construct: purchased Invitrogen (Life Technologies) SelectScreen Z'-LYTE
The experiment in a line: Kinase selectivity, Z'-LYTE. Type of series: biochemical. The essentials:
as §2

Series [17] concerns the target T10, AMPKA1/B1/G1 (Homo sapiens, UniProt Q13131).
T10 construct: purchased Invitrogen (Life Technologies) SelectScreen Z'-LYTE
The experiment in a line: Kinase selectivity, Z'-LYTE. The class given is biochemical. The essentials: as §2

The target in series [18] is T1, Pak1. The experiment in a line: Kinase selectivity, Z'-LYTE. Type of series: biochemical. The essentials: as §2
Series [19] addresses T11, ABL2 (Arg) (Homo sapiens, UniProt P42684).
T11 construct: purchased Invitrogen (Life Technologies) SelectScreen Z'-LYTE
The experiment in a line: Kinase selectivity, Z'-LYTE. Type of series: biochemical. A digest of the protocol: as §2

In series [20] the target is T12, RSK3 (Homo sapiens, UniProt Q15349).
T12 construct: purchased Invitrogen (Life Technologies) SelectScreen Z'-LYTE
The experiment in a line: Kinase selectivity, Z'-LYTE. The class given is biochemical. The essentials:
as §2

The target in series [21] is T13, RSK4 (Homo sapiens, UniProt Q9UK32).
T13 construct: purchased Invitrogen (Life Technologies) SelectScreen Z'-LYTE
The experiment in a line: Kinase selectivity, Z'-LYTE. The class given is biochemical. A digest of the protocol:
as §2

For series [22], the system named is KT21 cells. The experiment in a line: Immunoblot of signaling pathways. Type of series: cell-based. The method, then: Protein concentration was determined, and equal amount of total proteins were separated by SDS-PAGE. Antibodies used included those for Pak1 (2602), Pak2 (2608), Pak3 (2609), Pak4 (3242), phospho-Pak4-6 (3241), Mek1 (9122), Erk (9102), phospho-Erk1/2 (pThr202/pTyr204; 9101), Akt (9272), phospho-Akt (pThr308; 9275), S6 (2217), phospho-S6 (pSer235/pSer236; 4857), phospho-β-Catenin (pSer675; 4176), and cyclin D1 (2978) from Cell Signaling Technology; β-Catenin (610154) from BD Transduction Laboratories; and phospho-Pak (Ser141; 44940G) and phospho-Mek (Ser298; 44460G) from Invitrogen. GAPDH and β-actin were used as loading control.
A general note: Immunoblotting shows a protein as a band on a membrane.

T1 sequence (Q13153 whole entry): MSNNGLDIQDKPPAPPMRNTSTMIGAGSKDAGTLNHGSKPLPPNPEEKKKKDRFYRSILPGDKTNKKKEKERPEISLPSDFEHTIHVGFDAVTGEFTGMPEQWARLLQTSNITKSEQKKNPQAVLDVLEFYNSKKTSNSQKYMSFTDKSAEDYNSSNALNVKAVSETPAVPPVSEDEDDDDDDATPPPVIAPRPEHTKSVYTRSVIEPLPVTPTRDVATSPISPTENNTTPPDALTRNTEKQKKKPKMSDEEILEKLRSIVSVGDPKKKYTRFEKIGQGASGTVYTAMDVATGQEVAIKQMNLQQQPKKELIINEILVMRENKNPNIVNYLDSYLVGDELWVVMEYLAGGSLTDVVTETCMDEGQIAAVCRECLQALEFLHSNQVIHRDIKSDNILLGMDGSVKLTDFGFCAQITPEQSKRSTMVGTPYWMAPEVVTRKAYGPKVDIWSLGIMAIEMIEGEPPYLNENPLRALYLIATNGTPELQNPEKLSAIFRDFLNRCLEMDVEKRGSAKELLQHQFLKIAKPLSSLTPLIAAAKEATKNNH
T8 sequence (Q9Y463 whole entry): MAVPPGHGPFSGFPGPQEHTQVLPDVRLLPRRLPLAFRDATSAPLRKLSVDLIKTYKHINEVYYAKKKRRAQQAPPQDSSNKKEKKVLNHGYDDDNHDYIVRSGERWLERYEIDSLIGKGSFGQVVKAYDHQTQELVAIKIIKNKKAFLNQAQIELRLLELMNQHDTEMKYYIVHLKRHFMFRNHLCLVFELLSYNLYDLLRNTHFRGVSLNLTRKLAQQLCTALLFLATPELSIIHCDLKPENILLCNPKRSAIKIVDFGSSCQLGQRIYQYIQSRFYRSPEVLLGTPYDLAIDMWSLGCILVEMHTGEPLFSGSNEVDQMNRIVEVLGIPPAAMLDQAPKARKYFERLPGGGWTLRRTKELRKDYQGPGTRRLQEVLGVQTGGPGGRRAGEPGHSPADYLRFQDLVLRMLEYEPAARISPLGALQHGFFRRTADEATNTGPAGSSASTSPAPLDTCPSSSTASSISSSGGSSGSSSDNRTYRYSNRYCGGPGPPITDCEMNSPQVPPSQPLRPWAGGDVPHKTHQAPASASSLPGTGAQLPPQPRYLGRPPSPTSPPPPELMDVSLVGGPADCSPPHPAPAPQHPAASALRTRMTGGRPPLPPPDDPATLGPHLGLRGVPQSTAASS
T2 sequence (P04629 33-796): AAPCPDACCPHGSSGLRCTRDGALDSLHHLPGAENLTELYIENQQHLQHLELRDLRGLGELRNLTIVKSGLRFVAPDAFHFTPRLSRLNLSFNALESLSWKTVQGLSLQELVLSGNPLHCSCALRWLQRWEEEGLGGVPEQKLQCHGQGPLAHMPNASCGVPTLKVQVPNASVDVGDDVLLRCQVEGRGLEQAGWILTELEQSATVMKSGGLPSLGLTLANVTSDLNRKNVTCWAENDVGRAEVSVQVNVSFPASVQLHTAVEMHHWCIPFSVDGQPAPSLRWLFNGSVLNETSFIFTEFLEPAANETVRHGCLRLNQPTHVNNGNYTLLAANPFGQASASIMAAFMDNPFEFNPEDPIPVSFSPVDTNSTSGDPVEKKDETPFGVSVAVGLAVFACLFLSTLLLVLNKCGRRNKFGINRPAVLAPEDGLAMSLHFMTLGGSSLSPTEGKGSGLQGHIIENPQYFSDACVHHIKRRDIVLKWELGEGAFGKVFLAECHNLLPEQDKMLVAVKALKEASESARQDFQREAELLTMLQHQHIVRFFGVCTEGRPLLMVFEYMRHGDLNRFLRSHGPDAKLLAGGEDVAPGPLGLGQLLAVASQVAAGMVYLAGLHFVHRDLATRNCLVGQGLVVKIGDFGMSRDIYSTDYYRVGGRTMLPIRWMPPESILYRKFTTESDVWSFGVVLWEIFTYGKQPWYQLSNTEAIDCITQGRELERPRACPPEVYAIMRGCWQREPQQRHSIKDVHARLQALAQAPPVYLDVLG
T3 sequence (P31751 whole entry): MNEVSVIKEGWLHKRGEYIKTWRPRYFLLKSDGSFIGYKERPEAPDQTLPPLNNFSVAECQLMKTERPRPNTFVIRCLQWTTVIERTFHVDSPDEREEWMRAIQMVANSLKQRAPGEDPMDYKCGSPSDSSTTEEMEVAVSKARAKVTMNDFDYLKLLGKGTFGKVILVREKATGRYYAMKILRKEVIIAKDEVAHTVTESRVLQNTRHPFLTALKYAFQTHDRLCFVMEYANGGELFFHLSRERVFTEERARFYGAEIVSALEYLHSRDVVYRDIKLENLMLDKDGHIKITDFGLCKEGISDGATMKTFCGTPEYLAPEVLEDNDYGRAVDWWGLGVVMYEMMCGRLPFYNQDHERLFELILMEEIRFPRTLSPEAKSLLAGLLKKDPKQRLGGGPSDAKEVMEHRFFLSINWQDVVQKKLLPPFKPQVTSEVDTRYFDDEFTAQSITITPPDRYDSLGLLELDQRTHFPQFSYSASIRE
T9 sequence (P54646 whole entry): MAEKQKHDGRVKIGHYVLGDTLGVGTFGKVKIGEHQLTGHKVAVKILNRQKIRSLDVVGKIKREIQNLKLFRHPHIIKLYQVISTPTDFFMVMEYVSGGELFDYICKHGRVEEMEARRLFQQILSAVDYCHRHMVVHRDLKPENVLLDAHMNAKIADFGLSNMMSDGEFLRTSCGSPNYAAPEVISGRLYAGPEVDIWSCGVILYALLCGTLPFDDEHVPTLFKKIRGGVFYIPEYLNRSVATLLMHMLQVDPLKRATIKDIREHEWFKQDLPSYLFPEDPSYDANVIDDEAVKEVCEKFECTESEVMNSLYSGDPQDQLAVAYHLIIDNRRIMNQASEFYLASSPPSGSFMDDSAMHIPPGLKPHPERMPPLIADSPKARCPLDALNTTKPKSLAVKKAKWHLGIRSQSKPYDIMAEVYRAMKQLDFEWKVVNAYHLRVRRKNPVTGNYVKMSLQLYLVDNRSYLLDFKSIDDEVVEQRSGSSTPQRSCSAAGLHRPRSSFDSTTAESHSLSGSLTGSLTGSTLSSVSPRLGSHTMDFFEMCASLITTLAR
T9 sequence (Q9Y478 whole entry partner): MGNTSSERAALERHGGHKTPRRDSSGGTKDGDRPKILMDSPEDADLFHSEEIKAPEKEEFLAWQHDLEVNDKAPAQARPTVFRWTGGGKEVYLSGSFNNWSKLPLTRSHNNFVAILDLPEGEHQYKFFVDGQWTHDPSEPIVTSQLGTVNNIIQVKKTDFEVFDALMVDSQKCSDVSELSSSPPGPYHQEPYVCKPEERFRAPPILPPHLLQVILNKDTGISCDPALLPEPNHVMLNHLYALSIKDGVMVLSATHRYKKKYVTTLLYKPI
T9 sequence (P54619 whole entry partner): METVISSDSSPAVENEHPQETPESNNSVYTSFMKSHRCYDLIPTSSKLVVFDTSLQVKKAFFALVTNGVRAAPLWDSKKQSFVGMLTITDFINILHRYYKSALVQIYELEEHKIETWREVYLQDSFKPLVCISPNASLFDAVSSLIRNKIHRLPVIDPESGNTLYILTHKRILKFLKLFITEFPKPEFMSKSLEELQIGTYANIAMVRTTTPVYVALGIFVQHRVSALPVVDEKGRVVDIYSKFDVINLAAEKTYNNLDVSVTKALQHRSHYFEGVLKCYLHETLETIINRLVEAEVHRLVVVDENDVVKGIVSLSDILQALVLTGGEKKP
T11 sequence (P42684 whole entry): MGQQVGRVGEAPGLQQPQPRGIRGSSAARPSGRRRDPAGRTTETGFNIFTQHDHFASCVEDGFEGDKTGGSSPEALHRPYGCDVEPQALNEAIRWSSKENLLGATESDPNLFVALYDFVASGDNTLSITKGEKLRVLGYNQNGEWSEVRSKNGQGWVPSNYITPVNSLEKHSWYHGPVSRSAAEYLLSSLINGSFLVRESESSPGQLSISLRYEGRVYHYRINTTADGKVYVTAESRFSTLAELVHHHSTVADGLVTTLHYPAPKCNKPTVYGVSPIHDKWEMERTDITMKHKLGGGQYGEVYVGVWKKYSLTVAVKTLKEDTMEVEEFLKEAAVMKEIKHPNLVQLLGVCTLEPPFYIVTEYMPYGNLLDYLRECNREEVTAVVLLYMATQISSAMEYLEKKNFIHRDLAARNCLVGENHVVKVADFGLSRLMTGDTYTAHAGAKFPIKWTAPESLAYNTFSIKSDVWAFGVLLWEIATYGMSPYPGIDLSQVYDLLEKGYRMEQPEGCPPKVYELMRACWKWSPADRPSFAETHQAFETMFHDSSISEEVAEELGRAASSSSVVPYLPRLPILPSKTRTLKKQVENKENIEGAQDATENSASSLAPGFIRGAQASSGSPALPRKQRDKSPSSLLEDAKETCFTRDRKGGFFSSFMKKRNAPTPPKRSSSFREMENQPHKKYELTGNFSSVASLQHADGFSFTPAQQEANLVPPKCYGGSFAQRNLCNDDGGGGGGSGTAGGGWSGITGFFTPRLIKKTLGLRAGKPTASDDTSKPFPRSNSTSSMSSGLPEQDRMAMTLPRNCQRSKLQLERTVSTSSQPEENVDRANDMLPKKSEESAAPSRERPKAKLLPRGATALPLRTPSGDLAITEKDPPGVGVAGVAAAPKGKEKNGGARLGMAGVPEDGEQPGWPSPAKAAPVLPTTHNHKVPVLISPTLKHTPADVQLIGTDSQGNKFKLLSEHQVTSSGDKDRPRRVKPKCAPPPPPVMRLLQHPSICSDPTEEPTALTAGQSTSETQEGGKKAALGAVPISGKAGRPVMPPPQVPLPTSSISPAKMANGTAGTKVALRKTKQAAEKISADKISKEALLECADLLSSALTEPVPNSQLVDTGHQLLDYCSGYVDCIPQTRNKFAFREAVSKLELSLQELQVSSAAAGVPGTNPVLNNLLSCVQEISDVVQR

As a reminder, the IC50 is the midpoint of a concentration-inhibition curve. For `CCn1c(=O)c(-c2ccc(-c3noc(C)n3)cc2Cl)cc2cnc(Nc3ccc(C4CCN(C)CC4)cc3)nc21` [Frax716], the half-inhibitory concentration (IC50) in [1] stood at 218 nM; in [2] (72 hrs) it was 0.494 µM; in series [3] it was 1100 nM; in series [4] (72 hrs), 0.718 µM; in series [5] it was 288 nM; in series [7], 2 nM. Further, in series [6] (oral gavage 20 mg/kg/day), the “loss of body weight compared with control littermates” value is on record as over 10%. In addition, in [6] (SCID mice, KT21, oral gavage 20 mg/kg/day, 2 weeks, P = 0.028), the reduction on bioluminescence was determined as 60%. In addition, the “number of apoptotic cells” value in series [8] is reported as “substantial increase”. For the same compound, the “% inhibition of activity” value in [9] is 92%; in series [10], 9%; in [11], 3%; in series [12] it was 0%; in [13] it was 5%; in series [14] it was 91%. Further, the “% inhibition of activity” value in [15] was determined as 13%; in series [16], 29%; in series [17], 13%; in series [18], 95%; in [19] it was 82%.
With `CCn1c(=O)c(-c2ccc(-c3cncc(C)n3)cc2Cl)cc2cnc(NCCC3CCN(C)CC3)nc21` [Frax1036], the IC50 was determined as 1890 nM in [1]; 3.3 µM in series [2] (72 hrs); 1990 nM in series [3]; 4.24 µM in [4] (72 hrs); 1240 nM in series [5]. Further, the “loss of body weight compared with control littermates” value in [6] (Frax597 90 mg/kg/day, Frax1036 30 mg/kg/day, oral gavage) is given as “not seen”. Besides, in series [6] (SCID mice, KT21, oral gavage 30 mg/kg/day, 2 weeks, P = 0.042), the “reduction in BMI signals” value is on record as 37%. In series [8], the “number of apoptotic cells” value is “substantial increase”. The “% inhibition of activity” value in [12] was −14%; in series [13], 12%; in series [20] it was 26%; in [14], 8%; in series [21], 9%.
As for `Cc1nc(Nc2[nH]nc3c2CN(C(=O)N[C@H](CN(C)C)c2ccccc2)C3(C)C)c2sccc2n1` [PF3758309, reference compound], the IC50 turned out to be 29.2 nM in series [1]; 5.3 µM in series [2] (72 h); 5.32 µM in series [2] (72 hrs); 376 nM in [3]; 3.4 µM in [4] (72 h); 3.43 µM in series [4] (72 hrs). This compound also came in with an IC50 in series [5] of 1380 nM. Also, in [22], the “total and phospho-protein levels of β-catenin” value is reported as “only reduction on phosphorylation status”. Further, the “number of apoptotic cells” value in series [8] is reported as “substantial increase”. The “% inhibition of activity” value in series [9] came to 73%; in series [10] it was 0%; in series [11] it was 18%; in [13] it was 90%; in [15], 7%; in [16] it was 100%. Also, the figures for the “% inhibition of activity” value in [17], in [18] and in series [19] were 100%, 100% and 77%, respectively.

(Values after publication PMC4385830, “Group I Paks as therapeutic targets in NF2-deficient meningioma” (Oncotarget, 2015).)
